Here are results for nine compounds from patent US9301951B2 (Ardelyx, Inc., priority 2010, dated 2016).

This assay has as its target T1, rat NaP2b (SLC34A2) (Rattus norvegicus, UniProt Q9JJ09).
T1 construct: host or cells: HEK293
T1 sequence (Q9JJ09 1-695): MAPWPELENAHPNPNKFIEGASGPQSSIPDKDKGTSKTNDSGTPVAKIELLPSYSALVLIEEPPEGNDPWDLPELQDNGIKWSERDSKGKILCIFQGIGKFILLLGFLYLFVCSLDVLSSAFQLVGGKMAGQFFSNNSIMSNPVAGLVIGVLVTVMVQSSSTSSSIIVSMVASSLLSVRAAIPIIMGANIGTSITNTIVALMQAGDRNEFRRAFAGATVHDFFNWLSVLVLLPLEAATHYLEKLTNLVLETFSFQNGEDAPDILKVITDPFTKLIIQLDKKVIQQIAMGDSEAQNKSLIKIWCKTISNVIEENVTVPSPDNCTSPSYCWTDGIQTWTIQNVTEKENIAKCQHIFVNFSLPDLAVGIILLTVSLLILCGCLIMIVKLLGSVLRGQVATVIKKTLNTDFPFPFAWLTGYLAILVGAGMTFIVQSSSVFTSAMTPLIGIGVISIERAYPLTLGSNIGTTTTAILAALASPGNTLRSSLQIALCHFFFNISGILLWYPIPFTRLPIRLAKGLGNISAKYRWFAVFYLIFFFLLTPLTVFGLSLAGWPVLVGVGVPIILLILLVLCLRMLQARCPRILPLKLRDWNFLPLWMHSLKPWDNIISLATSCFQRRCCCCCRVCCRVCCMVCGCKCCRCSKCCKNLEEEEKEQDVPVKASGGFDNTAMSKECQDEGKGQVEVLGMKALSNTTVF
Kind of assay: Inhibition of NaP2b-mediated Pi (33P) uptake in transfected HEK293 cells, rat NaP2b. Type of assay: cell-based. The settings on record: HEK293 cells transfected with rat NaP2b, 100 uM phosphate, 0.1 nM to 30 uM, read-out: pIC50 range for rat Nap2b (converted). Here is the method:
HEK293 cells were obtained from the American Type Culture collection and propagated per their instructions. Expression clones for rat and human NaP2b (SLC34A2) were obtained from Open Biosystems (Catalog numbers MRN1768-9510282, and MHS1010-99823026, respectively). The sequence of the human protein was mutated to insert a threonine after residue 37, and to introduce a N39D mutation.
Cells were seeded into 96-well plates at 25,000 cells/well and cultured overnight. Lipofectamine 2000 (Invitrogen) was used to introduce the NaP2b cDNA, and the cells were allowed to approach confluence during a second overnight incubation. […] Cells were then overlayed with either choline uptake buffer or sodium uptake buffer (14 mM Tris, 137 mM sodium chloride, 5.4 mM KCl, 2.8 mM CaCl2, 1.2 mM MgSO4, 100 uM KH2PO4, PiT-silencing agent, 1 mg/mL Bovine Serum Albumin, pH 7.4) containing 6-9 uCi/mL ^33P orthophosphoric acid (Perkin Elmer) and test compound. Each compound was tested at twelve concentrations ranging from 0.1 nM to 30 uM. Assays were run in duplicate.
Cells were lysed by addition of 20 μL 0.1% Tween 80 followed by 100 μL scintillation fluid, and counted using a TopCount (Perkin Elmer).
pIC50 (the negative log of the […]) values of the test compounds were calculated using GraphPad Prism.
With `CC(C)(C)OC(=O)N1CCCN(Cc2cccc(C(=O)Nc3ccc(N4CCCCC4)cc3-c3cc(C(=O)NCc4cccc(C(F)(F)F)c4)ccn3)c2)CC1` [Example 44, tert-Butyl 4-(3-((4-(piperidin-1-yl)-2-(4-((3-(trifluoromethyl)benzyl)carbamoyl)pyridin-2-yl)phenyl)carbamoyl)benzyl)-1,4-diazepane-1-carboxylate], the IC50 is 10 to 31.6 µM. The value for `CN1CCCN(Cc2cccc(C(=O)Nc3ccc(N4CCCCC4)cc3-c3cc(C(=O)NCc4cccc(C(F)(F)F)c4)ccn3)c2)CC1` [Example 45, 2-(2-(3-((4-Methyl-1,4-diazepan-1-yl)methyl)benzamido)-5-(piperidin-1-yl)phenyl)-N-(3-(trifluoromethyl)benzyl)isonicotinamide] was 10 to 31.6 µM; that for `CC(=O)NC1CCN(Cc2cccc(C(=O)Nc3ccc(N4CCCCC4)cc3-c3cc(C(=O)NCc4cccc(C(F)(F)F)c4)ccn3)c2)CC1` [Example 46, 2-(2-(3-((4-Acetamidopiperidin-1-yl)methyl)benzamido)-5-(piperidin-1-yl)phenyl)-N-(3-(trifluoromethyl)benzyl)isonicotinamide] was 10 to 31.6 µM. As for `CC(=O)N1CCCN(Cc2cccc(C(=O)Nc3ccc(N4CCCCC4)cc3-c3cc(C(=O)NCc4cccc(C(F)(F)F)c4)ccn3)c2)CC1` [Example 49, 2-(2-(3-((4-Acetyl-1,4-diazepan-1-yl)methyl)benzamido)-5-(piperidin-1-yl)phenyl)-N-(3-(trifluoromethyl)benzyl)isonicotinamide], the IC50 was 1 to 7.94 µM. As for `CC(=O)N1CCN(Cc2cccc(C(=O)Nc3ccc(N4CCCCC4)cc3-c3cc(C(=O)NCc4cccc(C(F)(F)F)c4)ccn3)c2)CC1` [Example 50, 2-(2-(3-((4-Acetylpiperazin-1-yl)methyl)benzamido)-5-(piperidin-1-yl)phenyl)-N-(3-(trifluoromethyl)benzyl)isonicotinamide], the figure is 1 to 7.94 µM; as for `COCCNC(=O)CCN(C)Cc1cccc(C(=O)Nc2ccc(N3CCCCC3)cc2-c2cc(C(=O)NCc3cccc(C(F)(F)F)c3)ccn2)c1` [Example 51, 2-(2-(3-(((3-((2-Methoxyethyl)amino)-3-oxopropyl)(methyl)amino)methyl)benzamido)-5-(piperidin-1-yl)phenyl)-N-(3-(trifluoromethyl)benzyl)isonicotinamide], 1 to 7.94 µM; as for `CN(Cc1cccc(C(=O)Nc2ccc(N3CCCCC3)cc2-c2cc(C(=O)NCc3cccc(C(F)(F)F)c3)ccn2)n1)C(=O)CN1CCOCC1` [Example 53, 6-((N-Methyl-2-morpholinoacetamido)methyl)-N-(4-(piperidin-1-yl)-2-(4-((3-(trifluoromethyl)benzyl)carbamoyl)pyridin-2-yl)phenyl)picolinamide], 1 to 7.94 µM. The value for `CCN(CC)c1ccc(NC(=O)c2cccc(C(=O)N(C)CCN3CCCN(C(=O)OCCOCCOCCOCCOCCOCCOCCOCCOCCOCCOCCOC)CC3)c2)c(-c2cc(C(=O)N[C@H]3CCCc4ccccc43)ccn2)c1` [Example 199, (S)-2,5,8,11,14,17,20,23,26,29,32-undecaoxatetratriacontan-34-yl 4-(2-(3-((4-(diethylamino)-2-(4-((1,2,3,4-tetrahydronaphthalen-1-yl)carbamoyl)pyridin-2-yl)phenyl)carbamoyl)-N-methylbenzamido)ethyl)-1,4-diazepane-1-carboxylate] was 1 to 7.94 µM; that for `CCN(CC)c1ccc(NC(=O)c2cccc(C(=O)N(C)CCN(C)CCOCCOCCOCCNC(=O)C(C)(C)C)c2)c(-c2cc(C(=O)NCc3cccc(C(F)(F)F)c3)ccn2)c1` [Example 346, N^1-(4-(diethylamino)-2-(4-(3-(trifluoromethyl)benzylcarbamoyl)pyridin-2-yl)phenyl)-N^3-methyl-N^3-(3,17,17-trimethyl-16-oxo-6,9,12-trioxa-3,15-diazaoctadecyl)isophthalamide] was 1 to 7.94 µM.
